Measurements published in ChEMBL document CHEMBL3272304, “Syntheses of heterocylic fused thiazole acetic acids. 2” (1976).
The source made the active and inactive calls. The calls are words filed in the database; no cut-off is given here.

Assays:
Type in all cases: functional
[1] = test system: Mus musculus; test: Antidepressant activity in po dosed mouse assessed as antagonism of reserpine-induced ptosis
[2] = test system: Mycobacterium tuberculosis; test: Antitubercular activity against Mycobacterium tuberculosis H37Rv
[3] = test system: Lewis lung carcinoma cell line; test: Antimetastatic activity against mouse LLC cells allografted in BDF1 mouse assessed as increase in host survival
[4] = test system: Lewis lung carcinoma cell line; test: Antimetastatic activity against mouse LLC cells allografted in BDF1 mouse assessed as increase in host survival at 150 mg/kg relative to control

Row | Structure (SMILES) | ED50 [1] [mg/kg] | Activity [2] [µg/mL] | further results
1 | Br.O=C(O)CC1SC2=NCCN2C1(O)c1ccc(Cl)cc1 (configuration not stated) | 0.22 | – | –
2 | Br.COC(=O)CC1SC2=NCCN2C1(O)c1ccccc1 (configuration not stated) | 0.5 | 5 | –
3 | NNC(=O)c1ccncc1 [ISONIAZID] | – | 0.005 | –
4 | COC(=O)CC(Sc1nc2ccccc2[nH]1)C(=O)c1ccc(Cl)cc1 (configuration not stated) | – | 1 | –
5 | Br.O=C(O)CC1SC2=NCCCN2C1(O)c1ccc(Cl)cc1 (configuration not stated) | 0.25 | – | Activity [3]: inactive
6 | Br.CCOC(=O)CC1SC2=NCCCN2C1(O)c1ccc(Cl)cc1 (configuration not stated) | 0.118 | – | –
7 | O=C(O)Cc1sc2nc3ccccc3n2c1-c1ccc(Cl)cc1 | – | – | Activity [3]: Active
8 | Br.CCOC(=O)CC1SC2=NCCN2C1(O)c1ccccc1 (configuration not stated) | 0.27 | 5 | –
9 | Br.COC(=O)CC1Sc2nc3ccccc3n2C1(O)c1ccccc1 (configuration not stated) | – | 5 | –
10 | CCOC(=O)CC(Sc1nc2ccccc2[nH]1)C(=O)c1ccc(Cl)cc1 (configuration not stated) | – | 1 | –
11 | CCOC(=O)CC1Sc2nc(=O)cc(NC(C)=O)n2C1(O)c1ccc(Cl)cc1 (configuration not stated) | – | 1 | –
12 | Br.CCOC(=O)CC1SC2=NCCN2C1(O)c1ccc(Cl)cc1 (configuration not stated) | – | 5 | –
13 | CCOC(=O)CC1Sc2nc3ccccc3n2C1(O)c1ccc(Cl)cc1 (configuration not stated) | – | 1 | Activity [3]: Active
14 | O=C(O)CC1Sc2nc3ccccc3n2C1(O)c1ccc(Cl)cc1 (configuration not stated) | – | – | T/C [4]: 37%
15 | Br.COC(=O)CC1SC2=NCCN2C1(O)c1ccc(Cl)cc1 (configuration not stated) | 0.5 | 1 | –
16 | COC(=O)CC1Sc2nc3ccccc3n2C1(O)c1ccc(Cl)cc1 (configuration not stated) | – | 2 | Activity [3]: Active
